Reference: patent publication US20120270769A1, “METHODS OF USING MACROCYCLIC INHIBITORS OF SERINE PROTEASE ENZYMES” (priority 2009, published 2012)

Legend:
[1] = biological target: T1, human matriptase (Homo sapiens, UniProt Q9Y5Y6); test: Assay for inhibition of matriptase (fluorogenic AMC substrate); type: biochemical; conditions: for Velocity (FU/min): residual matriptase velocity with test compound, substrate Boc-Gln-Ala-Arg-AMC, method gives 10 μM for initial screening, lower = more inhibition; for Ki: calculated from velocity by nonlinear regression, competitive inhibition model (GraphPad Prism 5)
T1 sequence (Q9Y5Y6 1-855): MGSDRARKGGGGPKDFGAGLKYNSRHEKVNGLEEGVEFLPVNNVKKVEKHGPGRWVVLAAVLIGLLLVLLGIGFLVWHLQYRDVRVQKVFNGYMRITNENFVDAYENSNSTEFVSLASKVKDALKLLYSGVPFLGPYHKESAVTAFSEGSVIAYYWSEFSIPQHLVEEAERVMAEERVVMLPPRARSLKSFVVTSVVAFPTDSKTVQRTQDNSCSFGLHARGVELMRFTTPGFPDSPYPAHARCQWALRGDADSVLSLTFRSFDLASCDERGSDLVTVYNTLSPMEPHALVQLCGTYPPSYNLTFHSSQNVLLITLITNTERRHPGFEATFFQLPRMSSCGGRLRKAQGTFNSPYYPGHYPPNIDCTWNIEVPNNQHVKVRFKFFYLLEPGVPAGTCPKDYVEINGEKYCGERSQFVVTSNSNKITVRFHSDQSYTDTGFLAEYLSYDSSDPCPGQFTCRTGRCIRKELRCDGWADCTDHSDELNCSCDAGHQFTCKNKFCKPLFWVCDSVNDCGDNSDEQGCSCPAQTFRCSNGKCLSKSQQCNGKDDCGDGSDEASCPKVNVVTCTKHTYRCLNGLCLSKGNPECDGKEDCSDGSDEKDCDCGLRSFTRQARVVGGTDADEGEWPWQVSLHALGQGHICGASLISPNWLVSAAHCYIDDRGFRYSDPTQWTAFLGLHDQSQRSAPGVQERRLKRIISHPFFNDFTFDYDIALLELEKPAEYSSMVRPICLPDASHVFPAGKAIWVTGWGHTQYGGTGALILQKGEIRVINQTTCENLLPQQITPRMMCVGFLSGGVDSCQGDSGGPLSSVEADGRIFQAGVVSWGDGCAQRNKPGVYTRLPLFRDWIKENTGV
Excerpt: The following describes an assay for matriptase as a representative serine protease and is based upon reported methods. (Désilets, A.; Longpré, J.-M.; Beaulieu, M.-E.; Leduc, R. FEBS Lett. 2006, 580, 2227-2232.) Similar assays are applicable and available for other serine proteases.
Enzyme activities were monitored by measuring the release of fluorescence from AMC-coupled peptides (excitation, 360 nm; emission, 441 nm) in a FLX-800 TBE microplate reader (Bio-Tek Instruments, Winooski, Vt., USA). The purified human matriptase was active site titrated with the burst titrant 4-methylumbelliferyl-p-guanidino benzoate (MUGB). Enzymatic assays with matriptase were performed in Tris HCl 100 mM containing 500 µg/mL BSA at pH 9. Human soluble furin was expressed, purified, titrated and assayed as described in the literature (Denault, J. B.; Lazure, C.; Day, R; Leduc, R. Protein Expr. Purif. 2000, 19, 113-124.) The purified HAT protein was active-site titrated with MUGB. Assays with HAT were performed in 50 mM Tris-HCl at pH 8.6.
Enzymes were diluted to concentrations ranging from 4 to 12.5 nM for furin, from 2 to 7 nM for matriptase and 20 pM for HAT and incubated with either 10 μM (for initial screening) […] or appropriate dilutions (for kinetic analysis), for example 0, 500, 1000, 2000 nM or 0, 250, 500, 1000, 2500, 5000 nM, of the test compound for 15 min at RT. Residual enzyme activity was measured by following the hydrolysis of a fluorogenic substrate (4 μM Boc-Arg-Val-Arg-Arg-AMC for furin, Boc-Gln-Ala-Arg-AMC for matriptase and 4 μM Boc-Val-Pro-Arg-AMC for HAT) (Bachem Bioscience, King of Prussia, Pa., USA). Saturation curves were performed in the presence of increasing concentrations of test compounds. Data from three independent experiments or more were typically averaged and residual velocities were plotted as a function of test compound concentration. Data were fitted by non-linear regression analysis to Equation (1) (Bieth, J. G. Methods Enzymol. 1995, 248, 59-84.) using the Enzfitter software (Biosoft, Ferguson, Mo., USA).
vi/v0=1−{([E]0+[I]0+Ki(app))−(([E]0+[I]0+Ki(app))^2−4[E]0[I]0)^1/2}/2[E]0 Equation (1): […]
where v0 and vi are the steady-state rates of substrate hydrolysis in the absence and presence of inhibitor, respectively, [E]0, the initial concentration of enzyme, [I]0, the initial concentration of inhibitor and Ki(app) the substrate-dependent equilibrium dissociation constant. The substrate-independent constant Ki was calculated using Equation (2) (Bieth, J. G. Methods Enzymol. 1995, 248, 59-84.),
Kt=Ki(app)(1+[S]0/Km) Equation (2): […]
The table presents results for matriptase inhibition for representative compounds of the invention.
Ki's can be calculated from the velocity using nonlinear regression analysis. The model used is a competitive enzyme inhibition equation where KmObs=Km*(1+[I]/Ki) and Y=Vmax*X/(KmObs+X). X is the substrate concentration. Y the velocity.

[2] = test system: tumor metastasis; conditions: cited from earlier work

Structure (SMILES)	Velocity (FU/min) [1] [FU/min]	Ki [1] [nM]	activity in an in vivo model of tumor metastasis [2]
C[C@@H]1C(=O)N[C@H](Cc2ccc(C(=N)N)cc2)C(=O)NCCc2ccccc2OCCN[C@@H](C2CC2)C(=O)N1C [Compound 481]	1875		
C[C@@H]1C(=O)N[C@H](Cc2ccc(C(=N)N)cc2)C(=O)NCc2ccccc2Sc2ccccc2CN[C@@H](C2CC2)C(=O)N1C [Compound 475]	2125		
C[C@@H]1NCCOc2cc(F)ccc2CCCNC(=O)[C@@H](Cc2ccc(C(=N)N)cc2)NC(=O)[C@@H](C)N(C)C1=O [Compound 467]	2300		
C[C@@H]1CCc2ccc(F)cc2OCCN[C@@H](C2CC2)C(=O)N(C)[C@H](C)C(=O)N[C@H](Cc2ccc(C(=N)N)cc2)C(=O)N1 [Compound 457]	1750		
C[C@@H]1C(=O)N[C@H](Cc2ccc(C(=N)N)cc2)C(=O)NCCCc2ccccc2OCCN[C@@H](C2CC2)C(=O)N1C [Compound 464]	1875		
C[C@@H]1C(=O)N[C@H](CCCNC(N)=O)C(=O)NCCCc2ccc(F)cc2OCCN[C@@H](C2CC2)C(=O)N1C [Compound 491]	2440		
C[C@@H]1CN[C@@H](C2CC2)C(=O)N(C)[C@H](C)C(=O)N[C@H](Cc2ccc(C(=N)N)cc2)C(=O)NCCCc2ccccc2O1 [Compound 459]	140	245	
C[C@@H]1C(=O)N[C@H](CCCCN)C(=O)NCCCc2ccc(F)cc2OCCN[C@@H](C2CC2)C(=O)N1C [Compound 485]	2625		
C[C@@H]1C(=O)N[C@H](Cc2ccc(C(N)=O)cc2)C(=O)NCCCc2ccc(C(=N)N)cc2OCCN[C@@H](C2CC2)C(=O)N1C [Compound 499]	937		
C[C@@H]1C(=O)N[C@H](Cc2ccc(C(=N)N)cc2)C(=O)NCCCC2CCCCC2OCCN[C@@H](C2CC2)C(=O)N1C (stereo partly drawn) [Compound 480]	1875		
C[C@@H]1C(=O)N[C@H](Cc2ccc(C(=N)N)cc2)C(=O)NCCCc2ccc(C(=N)N)cc2OCCN[C@@H](C2CC2)C(=O)N1C [Compound 461]	812		
C[C@@H]1C(=O)N[C@H](Cc2ccc(C(=N)N)cc2)C(=O)NC/C=C/c2cccc(c2)OCCN[C@@H](C2CC2)C(=O)N1C [Compound 482]	2500		
C[C@@H]1C(=O)N[C@H](Cc2ccc(C(=N)N)cc2)C(=O)NCCCc2ccc(F)cc2OCCN[C@@H](C2CC2)C(=O)N1C [Compound 451]	1590	1460	
C[C@@H]1C(=O)N[C@H](Cc2cccnc2)C(=O)NCCCc2ccc(F)cc2OCCN[C@@H](C2CC2)C(=O)N1C [Compound 494]	2125		
C[C@@H]1C(=O)N[C@H](CCCCNC(N)=O)C(=O)NCCCc2ccc(F)cc2OCCN[C@@H](C2CC2)C(=O)N1C [Compound 492]	2440		
C[C@@H]1C(=O)N[C@H](CCCN)C(=O)NCCCc2ccc(F)cc2OCCN[C@@H](C2CC2)C(=O)N1C [Compound 487]	2500		

Structure (SMILES)	Velocity (FU/min) [1] [FU/min]	Ki [1] [nM]	activity in an in vivo model of tumor metastasis [2]
C[C@@H]1C(=O)N[C@@H](Cc2ccc(C(=N)N)cc2)C(=O)NCCCc2ccc(F)cc2OCCN[C@@H](C2CC2)C(=O)N1C [Compound 454]	2190		
C[C@@H]1C(=O)N[C@H](Cc2ccc(C(=N)N)cc2)C(=O)NCCOc2cccc(c2)OCCN[C@@H](C2CC2)C(=O)N1C [Compound 479]	2190		
C[C@@H]1C(=O)N[C@H](Cc2c[nH]cn2)C(=O)NCCCc2ccc(F)cc2OCCN[C@@H](C2CC2)C(=O)N1C [Compound 493]	2700		
C[C@@H]1CN[C@@H](C2CC2)C(=O)N(C)[C@H](C)C(=O)N[C@H](Cc2ccc(C(=N)N)cc2)C(=O)NCCCc2ccc(F)cc2O1 [Compound 458]	812		
C[C@@H]1C(=O)N[C@H](Cc2ccc(C(=N)N)cc2)C(=O)NCCCc2ccc(F)cc2OCCN[C@H](C2CC2)C(=O)N1C [Compound 456]	2250		
C[C@@H]1C(=O)N[C@H](CCC(N)=O)C(=O)NCCCc2ccc(F)cc2OCCN[C@@H](C2CC2)C(=O)N1C [Compound 490]	2440		
C[C@H]1C(=O)N[C@H](Cc2ccc(C(=N)N)cc2)C(=O)NCCCc2ccc(F)cc2OCCN[C@@H](C2CC2)C(=O)N1C [Compound 455]	2440		
C[C@@H]1C(=O)N[C@H](Cc2cscn2)C(=O)NCCCc2ccc(F)cc2OCCN[C@@H](C2CC2)C(=O)N1C [Compound 496]	2700		
C[C@@H]1C(=O)N[C@H](Cc2ccc(C(=N)N)cc2)C(=O)NC/C=C/c2ccccc2OCCN[C@@H](C2CC2)C(=O)N1C [Compound 465]	1125		
C[C@@H]1C(=O)N[C@H](Cc2ccc(C(=N)N)cc2)C(=O)NCCc2cccc(c2)CN[C@@H](C2CC2)C(=O)N1C [Compound 473]	2375		
C[C@@H]1C(=O)N[C@H](Cc2ccc(C(=N)N)cc2)C(=O)NCCc2ccccc2CCCCN[C@@H](C2CC2)C(=O)N1C [Compound 478]	2440		
COC(=O)NC(CCC(=O)O)(Cc1cccc(C(=N)N)c1)C(=O)NCC(=O)N[C@H](C=O)CCCNC(=N)N (stereo partly drawn) [CVS-3983]			has shown activity
C[C@@H]1C(=O)N[C@H](CCCNC(=N)N)C(=O)NCCCc2ccc(F)cc2OCCN[C@@H](C2CC2)C(=O)N1C [Compound 488]	2250		
C[C@@H]1C(=O)N[C@H](Cc2ccncc2)C(=O)NCCCc2ccc(F)cc2OCCN[C@@H](C2CC2)C(=O)N1C [Compound 495]	2700		
C[C@@H]1CN[C@@H](C2CC2)C(=O)N(C)[C@H](C)C(=O)N[C@H](Cc2ccc(C(N)=O)cc2)C(=O)NCCCc2ccccc2O1 [Compound 498]	580		
